Experimental findings from US20050239719A1, “Methods of using and compositions comprising thalidomide for the treatment and management of pulmonary hypertension” (priority 2004, published 2005) are described below.

The subject of test [1] is patients with PH, WHO functional class III or IV. Kind of test: Expanded Study: 16-week placebo-controlled study in 213 PH patients. The class given is in vivo, human. The method, then:
On the basis of the results of the above study 2, the clinical study is expanded with additional 213 PH patients for at least 16 weeks. The study is conducted with patients with PH, WHO functional class III or IV. Two hundred thirteen patients are randomized to receive either 200 mg bid or 400 mg bid of thalidomide or placebo in a 1:1:1 ratio. The primary endpoint, a 6-minute walk distance, is evaluated at 16 weeks. The treated patients walk 36.4 meters further at 16 weeks compared to a 7.8 meter reduction in walk distance in the placebo group, for a treatment effect of 44.2 meters. Clinical worsening, defined by death, premature withdrawal from study, hospitalization for worsening of PH or institution of epoprostenol, occur in 37% of placebo-treated patients, compared with 11% of the patients treated with the compound of the invention.

For test [2], the system named is patients with PH (NYHA functional class III). Kind of test: Clinical Study 2: 12-week placebo-controlled study in patients with PH. The class given is in vivo, human. The method, then:
In one embodiment of the invention, thalidomide is administered in a single or divided daily doses in an amount of from about 200 to about 800 mg/day. The compound is administered to patients with PH for 12 weeks, who are subsequently evaluated for a decline in walk distance, dyspnea score, functional class, pulmonary hemodynamic response. The first study enrolls 32 patients with PH. Patients are all in modified New York Heart Association functional class III at the onset of the study. Patents are maximally treated and are stable on conventional therapy, including calcium channel antagonists and diuretics. Two thirds of patients receive 400 mg of thalidomide for four weeks followed by 800 mg of the compound for eight weeks. One third of patients receive placebo. The primary efficacy endpoint is a 6-minute walk distance. Patients receiving the compound of the invention walk an average of 70 meters farther after 12 weeks while placebo patients have a decline in walk distance. In addition, the treated patients have improvements in dyspnea score and functional class compared with placebo patients. Pulmonary hemodynamic measurements reveal decreases in pulmonary arterial pressure and pulmonary vascular resistance, and increase in cardiac output after 12 weeks of the treatment, compared with worsening of pulmonary hemodynamics in placebo patients. All these changes in treated patients are highly significant compared with placebo.

The mark [3] stands for this setting: 12 weeks, compared with placebo patients.
[4] abbreviates: after 12 weeks of treatment, compared with placebo.

Each structure is given as a SMILES string.

For `O=C1CCC(N2C(=O)c3ccccc3C2=O)C(=O)N1` (racemic) [thalidomide, 2-(2,6-dioxo-3-piperidinyl)-1H-isoindole-1,3(2H)-dione], in test [1] (at 16 weeks, 200 mg bid or 400 mg bid), the “6-minute walk distance, increase” value came to 36.4 meters. In addition, the “6-minute walk distance, treatment effect versus placebo” value in test [1] (at 16 weeks, treated minus placebo (7.8 meter reduction)) was determined as 44.2 meters. Moreover, in test [1] (treated patients, 37% in placebo-treated patients), the “clinical worsening (death, premature withdrawal, hospitalization for worsening of PH or institution of epoprostenol), share of patients” value turned out to be 11%. The functional class entry in test [1] (treated versus placebo patients) is reported as “improved significantly more”. Moreover, in test [2] (setting [3]), the dyspnea score entry is listed as “improvements” and the functional class result was “improvements”. For the same compound, in test [2] (setting [4]), the cardiac output result was “increase”, the pulmonary arterial pressure result is listed as “decreases” and the pulmonary vascular resistance result is “decreases”. Moreover, in test [2] (after 12 weeks, 400 mg for four weeks then 800 mg for eight weeks, PH patients), the “6-minute walk distance, average increase” value amounted to 70 meters.
